In patent US20250206745A1, “PYRROLOPYRIDAZINE DERIVATIVES AND RELATED USES” (NodThera Limited, priority 2023, published 2025) one finds IC50 data, which are given here for 13 compounds.

For experiment [1], the system named is IL-1β release upon NLRP3 activation in peripheral blood mononuclear cells (PBMC). As to the kind of experiment: PBMC IC50 Determination Assay. In kind it is cell-based. As to conditions: Homo sapiens; inhibition of IL-1β release; PBMC primed with LPS, stimulated with ATP or nigericin; ELISA or HTRF. In short, it runs like this: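 Human buffy-coat PBMC primed 3 h with LPS (1 μg/mL in Protocol B), given compound for 30 min, then stimulated 1 h with 5 mM ATP or 10 μM nigericin (Protocol A) or 5 mM ATP (Protocol B). IL-1β in supernatant measured by ELISA at 450 nm (A) or HTRF (B).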

The test system of experiment [2] is IL-1β release upon NLRP3 activation in phorbol 12-myristate 13-acetate (PMA)-differentiated THP-1 cells. As to the kind of experiment: THP-1 IC50 Determination Assay. Type of experiment: cell-based. As to conditions: Homo sapiens, inhibition of IL-1β release, LPS, nigericin, ELISA. In short, it runs like this: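 THP-1 cells differentiated with 5 ng/mL PMA for ~40 h, plated 30,000/well and primed 2 h with 25 ng/mL LPS. Compounds added as 8-point 1:3 series (0.5% DMSO), then nigericin activation for 2 h at 37 °C; supernatant IL-1β measured by ELISA.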

Counter-ions that a name gives are not always drawn.

Consider `CC(=O)N1CCCCC1Cn1ccc2cc(-c3c(C)cc(Cl)cc3O)nnc21` (centres unmarked) [Compound 57, 1-(2-{[3-(4-Chloro-2-hydroxy-6-methylphenyl)-7H-pyrrolo[2,3-c]pyridazin-7-yl]methyl}piperidin-1-yl)ethan-1-one], for which the half-maximal inhibitory concentration (IC50) in experiment [1] and in experiment [2] was 30 to 100 nM in each case.

As to `Cc1cc(Cl)cc(O)c1-c1cc2ccn(CC(=O)N(C)C3COC3)c2nn1` [Compound 58, 2-[3-(4-Chloro-2-hydroxy-6-methylphenyl)-7H-pyrrolo[2,3-c]pyridazin-7-yl]-N-methyl-N-(oxetan-3-yl)acetamide], the IC50 in experiment [1] and in experiment [2] was 100 to 300 nM in each case.

Consider `Cc1cc(Cl)cc(O)c1-c1cc2ccn(CC(=O)N(C)[C@H]3CCOC3)c2nn1` [Compound 59, 2-[3-(4-Chloro-2-hydroxy-6-methylphenyl)-7H-pyrrolo[2,3-c]pyridazin-7-yl]-N-methyl-N-[(3S)-oxolan-3-yl]acetamide], for which the IC50 in experiment [1] fell in the range of 30 to 100 nM; in experiment [2] it was 100 to 300 nM.

For `Cc1cc(Cl)cc(O)c1-c1cc2ccn(CC3CCN(C=O)CC3)c2nn1` [Compound 63, 4-{[3-(4-Chloro-2-hydroxy-6-methylphenyl)-7H-pyrrolo[2,3-c]pyridazin-7-yl]methyl}piperidine-1-carbaldehyde], the IC50 is less than 30 nM in experiment [1] and 30 to 100 nM in experiment [2].

Take `Cc1cc(Cl)cc(O)c1-c1cc2ccn(CC3CCC(=O)N3C)c2nn1` (centres unmarked) [Compound 65, 5-{[3-(4-Chloro-2-hydroxy-6-methylphenyl)-7H-pyrrolo[2,3-c]pyridazin-7-yl]methyl}-1-methylpyrrolidin-2-one]: the IC50 in experiment [1] and in experiment [2] was 30 to 100 nM each time.

As to `Cc1cc(Cl)cc(O)c1-c1cc2ncn(CC3CCN(C)CC3)c2nn1` [Compound 71, 5-Chloro-3-methyl-2-{7-[(1-methylpiperidin-4-yl)methyl]-7H-imidazo[4,5-c]pyridazin-3-yl}phenol], the IC50 in experiment [1] was less than 30 nM; in experiment [2], 30 to 100 nM.

As for `CC(=O)N1CCC(Cn2cnc3cc(-c4c(C)cc(Cl)cc4O)nnc32)CC1` [Compound 72, 1-(4-{[3-(4-Chloro-2-hydroxy-6-methylphenyl)-7H-imidazo[4,5-c]pyridazin-7-yl]methyl}piperidin-1-yl)ethan-1-one], the IC50 in experiment [1] and in experiment [2] was 30 to 100 nM throughout.

With `Cc1cc(C#N)cc(O)c1-c1cc2ncn(CC3CCN(C)CC3)c2nn1` [Compound 73, 3-Hydroxy-5-methyl-4-{7-[(1-methylpiperidin-4-yl)methyl]-7H-imidazo[4,5-c]pyridazin-3-yl}benzonitrile], the IC50 lay in the range of 100 to 300 nM in experiment [1] and 300 to 1000 nM in experiment [2].

In the case of `Cc1cc(Cl)cc(O)c1-c1cc2ncn(C[C@H]3CCN(C)C3)c2nn1` [Compound 74, 5-Chloro-3-methyl-2-(7-{[(3S)-1-methylpyrrolidin-3-yl]methyl}-7H-imidazo[4,5-c]pyridazin-3-yl)phenol hydrochloride], the IC50 in experiment [1] and in experiment [2] was 30 to 100 nM in each case.

As to `Cc1cc(Cl)cc(O)c1-c1cc2ncn(C[C@@H]3CCN(C)C3)c2nn1` [Compound 75, 5-Chloro-3-methyl-2-(7-{[(3R)-1-methylpyrrolidin-3-yl]methyl}-7H-imidazo[4,5-c]pyridazin-3-yl)phenol hydrochloride], the results for the IC50 in experiment [1] and in experiment [2] were 30 to 100 nM and 100 to 300 nM, respectively.

On to `Cc1cc(C)c(-c2cc3ncn(CC4CCN(C)CC4)c3nn2)c(O)c1` [Compound 76, 3,5-Dimethyl-2-{7-[(1-methylpiperidin-4-yl)methyl]-7H-imidazo[4,5-c]pyridazin-3-yl}phenol], for which the IC50 in experiment [1] and in experiment [2] was 30 to 100 nM in each case.

On to `Cc1cc(Cl)cc(O)c1-c1cc2ncn(CC(=O)N(C)C)c2nn1` [Compound 77, 2-[3-(4-Chloro-2-hydroxy-6-methylphenyl)-7H-imidazo[4,5-c]pyridazin-7-yl]-N,N-dimethylacetamide], for which the IC50 in experiment [1] was 30 to 100 nM; in experiment [2], 100 to 300 nM.

In the case of `Cc1cc(Cl)cc(O)c1-c1cc2ncn(CC3(F)CCN(C)CC3)c2nn1` [Compound 78, 5-Chloro-2-{7-[(4-fluoro-1-methylpiperidin-4-yl)methyl]-7H-imidazo[4,5-c]pyridazin-3-yl}-3-methylphenol hydrochloride], the concentration for half-maximal inhibition (IC50) in experiment [1] and in experiment [2] was 30 to 100 nM in each case.
